# Literature values, collected in patent US7842280B2, “Flexibly labeling peptides” (Case Western Reserve University, priority 2006, dated 2010).
# Conditions: Gd^3+-DOTA used in clinical MRI studies; comparison value; cited from earlier work
structure (smiles),measurement,value
O=C([O-])CN1CCN(CC(=O)[O-])CCN(CC(=O)[O-])CCN(CC(=O)[O-])CC1.[Gd+3] [Gd^3+-DOTA],relaxivity,3.83 m mM^−1 sec^−1
